How the values were obtained:
Plasmodium falciparum = test: Antiplasmodial activity against chloroquine-resistant Plasmodium falciparum W2 after 48 hrs by YOYO-1 dye-based flow cytometry; assay type: functional, organism-based; details: W2, 48 h
HeLa = test: Cytotoxicity against human HeLa cells assessed as reduction in cell viability after 24 hrs by trypan blue-based hemacytometer counting analysis
[1] = Selectivity index, ratio of IC50 for human HeLa cells to IC50 for chloroquine-resistant Plasmodium falciparum W2; assay type: toxicity; details: read-out: Ratio IC50

SMILES	IC50 (Plasmodium falciparum) [µM]	IC50 (HeLa) [µM]	selectivity ratio [1]
COc1cc(C2=NN(C(C)=O)C(c3ccccc3)C2)ccc1OCc1cn(CCNc2ccnc3cc(Cl)ccc23)nn1 (stereo unspecified)	0.286	–	–
COc1ccc(C2CC(c3ccc(OCc4cn(CCCNc5ccnc6cc(Cl)ccc56)nn4)cc3)=NN2C(C)=O)cc1OC (stereo unspecified)	0.504	–	–
COc1ccc(/C=C/C(=O)c2ccc(OCc3cn(CCCNc4ccnc5cc(Cl)ccc45)nn3)cc2)cc1OC	> 10	–	–
COc1ccc(C2CC(c3ccc(OCc4cn(CCNc5ccnc6cc(Cl)ccc56)nn4)c(OC)c3)=NN2C(C)=O)cc1OC (stereo unspecified)	0.0537	42.7	795
COc1cc(C2=NN(C(C)=O)C(c3ccccc3)C2)ccc1OCc1cn(CCCNc2ccnc3cc(Cl)ccc23)nn1 (stereo unspecified)	0.077	46.1	598
COc1cc(C(=O)/C=C/c2cc(OC)c(OC)c(OC)c2)ccc1OCc1cn(CCCNc2ccnc3cc(Cl)ccc23)nn1	0.831	–	–
COc1ccc(/C=C/C(=O)c2ccc(OCc3cn(CCNc4ccnc5cc(Cl)ccc45)nn3)cc2)cc1	0.114	35.6	311
COc1ccc(C2CC(c3ccc(OCc4cn(CCCNc5ccnc6cc(Cl)ccc56)nn4)c(OC)c3)=NN2C(C)=O)cc1 (stereo unspecified)	1.57	–	–
COc1ccc(/C=C/C(=O)c2ccc(OCc3cn(CCCNc4ccnc5cc(Cl)ccc45)nn3)c(OC)c2)cc1OC	0.337	–	–
COc1cc(/C=C/C(=O)c2ccc(OCc3cn(CCNc4ccnc5cc(Cl)ccc45)nn3)cc2)cc(OC)c1OC	0.175	–	–
O=C(/C=C/c1ccccc1)c1ccc(OCc2cn(CCCNc3ccnc4cc(Cl)ccc34)nn2)cc1	> 10	–	–
COc1cc(/C=C/C(=O)c2ccc(OCc3cn(CCCNc4ccnc5cc(Cl)ccc45)nn3)cc2)cc(OC)c1OC	5.28	–	–
COc1ccc(C2CC(c3ccc(OCc4cn(CCNc5ccnc6cc(Cl)ccc56)nn4)cc3)=NN2C(C)=O)cc1 (stereo unspecified)	0.131	29.2	223
COc1cc(C2=NN(C(C)=O)C(c3cc(OC)c(OC)c(OC)c3)C2)ccc1OCc1cn(CCCNc2ccnc3cc(Cl)ccc23)nn1 (stereo unspecified)	1.74	–	–
COc1cc(C2=NN(C(C)=O)C(c3cc(OC)c(OC)c(OC)c3)C2)ccc1OCc1cn(CCNc2ccnc3cc(Cl)ccc23)nn1 (stereo unspecified)	0.139	–	–
COc1ccc(/C=C/C(=O)c2ccc(OCc3cn(CCNc4ccnc5cc(Cl)ccc45)nn3)c(OC)c2)cc1OC	0.83	–	–
COc1ccc(/C=C/C(=O)c2ccc(OCc3cn(CCCNc4ccnc5cc(Cl)ccc45)nn3)cc2)cc1	> 10	–	–

SMILES	IC50 (Plasmodium falciparum) [µM]	IC50 (HeLa) [µM]	selectivity ratio [1]
COc1cc(C2CC(c3ccc(OCc4cn(CCNc5ccnc6cc(Cl)ccc56)nn4)cc3)=NN2C(C)=O)cc(OC)c1OC (stereo unspecified)	0.426	–	–
COc1ccc(C2CC(c3ccc(OCc4cn(CCCNc5ccnc6cc(Cl)ccc56)nn4)cc3)=NN2C(C)=O)cc1 (stereo unspecified)	0.498	–	–
CC(=O)N1N=C(c2ccc(OCc3cn(CCNc4ccnc5cc(Cl)ccc45)nn3)cc2)CC1c1ccccc1 (stereo unspecified)	0.237	–	–
COc1ccc(/C=C/C(=O)c2ccc(OCc3cn(CCNc4ccnc5cc(Cl)ccc45)nn3)cc2)cc1OC	0.141	12.7	90
COc1ccc(C2CC(c3ccc(OCc4cn(CCCNc5ccnc6cc(Cl)ccc56)nn4)c(OC)c3)=NN2C(C)=O)cc1OC (stereo unspecified)	1.68	–	–
COc1ccc(/C=C/C(=O)c2ccc(OCc3cn(CCCNc4ccnc5cc(Cl)ccc45)nn3)c(OC)c2)cc1	> 10	–	–
COc1cc(C(=O)/C=C/c2ccccc2)ccc1OCc1cn(CCNc2ccnc3cc(Cl)ccc23)nn1	0.355	–	–
COc1cc(C(=O)/C=C/c2cc(OC)c(OC)c(OC)c2)ccc1OCc1cn(CCNc2ccnc3cc(Cl)ccc23)nn1	0.355	–	–
COc1ccc(C2CC(c3ccc(OCc4cn(CCNc5ccnc6cc(Cl)ccc56)nn4)c(OC)c3)=NN2C(C)=O)cc1 (stereo unspecified)	0.0587	32.8	558
COc1cc(C2CC(c3ccc(OCc4cn(CCCNc5ccnc6cc(Cl)ccc56)nn4)cc3)=NN2C(C)=O)cc(OC)c1OC (stereo unspecified)	2.42	–	–
COc1ccc(C2CC(c3ccc(OCc4cn(CCNc5ccnc6cc(Cl)ccc56)nn4)cc3)=NN2C(C)=O)cc1OC (stereo unspecified)	0.152	–	–
O=C(/C=C/c1ccccc1)c1ccc(OCc2cn(CCNc3ccnc4cc(Cl)ccc34)nn2)cc1	0.172	–	–
CC(=O)N1N=C(c2ccc(OCc3cn(CCCNc4ccnc5cc(Cl)ccc45)nn3)cc2)CC1c1ccccc1 (stereo unspecified)	3	–	–
COc1ccc(/C=C/C(=O)c2ccc(OCc3cn(CCNc4ccnc5cc(Cl)ccc45)nn3)c(OC)c2)cc1	1.91	–	–
COc1cc(C(=O)/C=C/c2ccccc2)ccc1OCc1cn(CCCNc2ccnc3cc(Cl)ccc23)nn1	6.96	–	–
C[C@@H]1CC[C@H]2[C@@H](C)C(=O)O[C@@H]3O[C@@]4(C)CC[C@@H]1[C@]32OO4 [ARTEMISININ]	0.0321	–	–
COc1cccc2c1C(=O)c1c(O)c3c(c(O)c1C2=O)C[C@@](O)(C(=O)CO)C[C@@H]3O[C@H]1C[C@H](N)[C@H](O)[C@H](C)O1 [DOXORUBICIN]	–	8.3	–

Source: ChEMBL document CHEMBL4130364, “4-Aminoquinoline-chalcone/-N-acetylpyrazoline conjugates: Synthesis and antiplasmodial evaluation” (Eur J Med Chem, 2017)
